Patent publication US12103965B2, “Diagnostic kit” (Phoenix Pharmaceuticals, Inc., priority 2011, dated 2024)
Where no end group is shown, it is not given here.

Legend:
[1] = tested on: antibodies raised to AGIVQEDVQPPGLKVWSDPF-NH2 (SEQ. ID NO: 7); test: RIA/EIA cross-reactivity of anti-phoenixin antibodies; assay type: binding; conditions: RIA or EIA
Protocol: Homogenates were prepared from heart tissues of adult rats. The supernatant of the rat heart homogenates were passed through C18 column extraction cartridges and P6 gel filtration to further purify native peptide candidates. The immunoreactive fractions as determined by conventional enzyme immunoassay (“EIA”) in which labeled chemically synthesized peptides as described above compete with unlabeled native phoenixin peptide for a limited quantity of the anti-phoenixin peptide antibodies, produced as above described. The label can be biotin complex which by reaction with streptavidin horseradish peroxidase and sequent reaction of the horseradish peroxidase with colormetric or fluorescence substrates can be quantitated. […]
Homogenates of porcine or bovine or rat tissue of heart, lung, kidney, spinal cord, small intestine, liver, pancreas, hypothalamus, spleen, and thymus were prepared as above-described and the resulting fractions were processed by the above-described peptides extraction procedure and were assayed by radio-immunoassay (“[…]”) or Enzyme Immunoassay (EIA) using antibodies raised to […]-NH2 (SEQ. ID NO: 7). […] Protein concentrations were determined by bicinchoninic acid (“BCA”) protein assay in accordance to the protocol of the manufacturer Thermo Scientific, Rockford, Illinois using bovine serum albumin (“BSA”) as a standard. […]

[2] = tested on: rat pituitary adenoma cells, RC-4B/C; test: cAMP production in pituitary cells (cAMP Biotrak enzyme immunoassay); assay type: cell-based; conditions: 100 nM peptide, 30 min, in presence of IBMX; PBS-control 100% = 4.94±0.5 pmol/mg protein
Protocol: Rat pituitary adenoma cells, RC-4B/C (CRL-1903; ATCC, Manassas, VA, USA), were cultured in Dulbecco's Modified Eagle's Medium and Minimum Essential Alpha Medium (Invitrogen, CA, USA) supplemented with 0.01 mM non-essential amino acids, 15 mM HEPES, 2.5 ng/ml epidermal growth factor, and dialyzed, heat-inactivated fetal bovine serum (“FBS”) at 37° C. in a humidified cell incubator containing 5% carbon dioxide (“CO2”). After 2 days of cell cultured in 24 wells plate, cell were equilibrated for 2 hours in serum-free medium and then incubated with 0.1 mM 3-isobutyl-1-methylxanthine (“IBMX”) in serum-free medium 30 min again. Then, cells were challenged with either 100 nM of […]-NH2 (SEQ. ID NO: 7), DVQPPGLKVWSDPFG (SEQ. ID NO: 3), DVQPPGLKVWSDPF-NH2 (SEQ. ID NO: 9), or a PBS-control in the presence of IBMX and incubated for 30 min. After incubation, supernatant medium was then aspirated and the cells in each well were extracted by 70% cold ethanol. Alcohol was evaporated in a vacuum concentrator (PN: AES 2000, Savant, Hicksvile, NY, USA) Thereafter, cAMP content was determined by using a cAMP Biotrak enzyme immunoassay kit (GE healthcare-Amersham, Piscataway, NJ, USA) in accordance with the protocol of the manufacturer.

[3] = tested on: rat pituitary adenoma cells, RC-4B/C; assay type: binding
Protocol: Also, rat pituitary adenoma cells, RC-4B/C cells, were used in the assay of radioligand binding. For the binding displacement, cells were incubated for 30 min with 50 pM 125I-Y0-Phoenixin-20 (amide SEQ. ID NO: 7) in the absence or presence of increasing concentrations of un-labeled Phoenixin-20 amide (amide SEQ. ID NO: 7) or phoenixin-14 amide (amide SEQ. ID NO: 9). Nonspecific binding was defined as total binding in the presence of 1 μM unlabeled Phoenixin-20 amide (amide SEQ. ID NO: 7) or phoenixin-14 amide (amide SEQ. ID NO: 9). After termination of the binding reaction by washing the cells with 1 ml of cold PBS, cells were solubilized with 0.5 ml of 1% SDS, and radioactivity was detected in a gamma counter.

Substance	cross-reactive with antibodies raised to SEQ. ID NO: 7 [1]	increase of intracellular cAMP production over the PBS control [2]	IC50 [3]
phoenixin (7-21) (DVQPPGLKVWSDPFG; listed as Homo sapiens) [SEQ. ID NO: 3]	less than 0.5%	greater than two fold and even three-fold	–
DVQPPGLKVWSDPF-NH2 [SEQ. ID NO: 9, phoenixin (7-20) amide]	100%	greater than two fold and even three-fold	0.0179 µM
AGIVQEDVQPPGLKVWSDPF-NH2 [SEQ. ID NO: 7, phoenixin (1-20) amide]	–	greater than two fold and even three-fold	0.0215 µM
